Measured values taken from patent US20230391760A1, “HETEROCYCLIC GLP-1 AGONISTS” (Gasherbrum Bio, Inc., priority 2020, published 2023).

Biological target: GLP-1 Receptor (Homo sapiens, UniProt P43220)
Assay: GLP-1R agonist cAMP stimulation assay (HEK293/GLP1R/CRE-LUC cells, cAMP dynamic 2 Kit)
Format: cell-based
Details: HEK293/CRE-Luc cell line stably expressing the GLP-1 Receptor, 30 min at 37° C.
Procedure, shortened: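 HEK293 cells stably expressing human GLP-1R with CRE-luciferase, 1000 cells/well in DPBS with 0.5 mM IBMX and 0.1% BSA, treated with compound in 1/2-log serial dilution for 30 min at 37 °C. cAMP then detected by HTRF (cAMP-d2 plus anti-cAMP cryptate), 1 h at room temperature in the dark.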

Chain of GLP-1 Receptor (P43220 24-463, species assumed): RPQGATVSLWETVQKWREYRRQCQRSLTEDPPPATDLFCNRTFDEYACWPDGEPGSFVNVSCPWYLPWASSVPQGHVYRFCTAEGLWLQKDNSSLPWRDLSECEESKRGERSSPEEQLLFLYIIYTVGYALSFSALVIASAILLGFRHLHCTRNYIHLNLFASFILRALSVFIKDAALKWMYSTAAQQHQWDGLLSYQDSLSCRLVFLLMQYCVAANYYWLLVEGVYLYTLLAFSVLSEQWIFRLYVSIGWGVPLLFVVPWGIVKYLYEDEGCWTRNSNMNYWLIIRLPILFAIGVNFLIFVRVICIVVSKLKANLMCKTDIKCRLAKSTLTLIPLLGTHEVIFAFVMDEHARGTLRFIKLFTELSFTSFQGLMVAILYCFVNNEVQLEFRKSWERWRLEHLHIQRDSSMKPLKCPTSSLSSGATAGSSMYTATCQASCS

| EC50 [nM] | SMILES |
| --- | --- |
| 3.2 | Fc1cc(Cl)ccc1COc1cccc(C2CCN(Cc3nc4cc(-c5cn(C6CCCOC6)nn5)ccc4n3C[C@@H]3CCO3)CC2)n1 (stereo partly drawn) [Compound 209a, 2-[(4-{6-[(4-chloro-2-fluorophenyl)methoxy]pyridin-2-yl}piperidin-1-yl)methyl]-5-[1-(oxan-3-yl)-1H-1,2,3-triazol-4-yl]-1-{[(2S)-oxetan-2-yl]methyl}-1H-1,3-benzodiazole] |
| 2.8 | O=c1[nH]c(-c2cnc3c(c2)nc(CN2CC=C(c4ccc(F)c(OCc5ccc(Cl)cc5F)c4)CC2)n3C[C@@H]2CCO2)no1 [Compound 293a, 3-{2-[(4-{3-[(4-chloro-2-fluorophenyl)methoxy]-4-fluorophenyl}-1,2,3,6-tetrahydropyridin-1-yl)methyl]-3-{[(2S)-oxetan-2-yl]methyl}-3H-imidazo[4,5-b]pyridin-6-yl}-4,5-dihydro-1,2,4-oxadiazol-5-one] |
| 8.8 | Cc1cncc(C)c1C(=O)Nc1ccc2c(c1)nc(CN1CCC(c3cccc(OCc4ccc(Cl)cc4F)n3)CC1)n2C[C@@H]1CCO1 [Compound 191a, N-{2-[(4-{6-[(4-chloro-2-fluorophenyl)methoxy]pyridin-2-yl}piperidin-1-yl)methyl]-1-{[(2S)-oxetan-2-yl]methyl}-1H-1,3-benzodiazol-5-yl}-3,5-dimethylpyridine-4-carboxamide] |
| 1.5 | O=C(Nc1ccc2c(c1)nc(CN1CCC(c3cccc(OCc4ccc(Cl)cc4F)n3)CC1)n2C[C@@H]1CCO1)C1CCCOC1 (single isomer, unassigned) [Compound 154c] |
| 0.069 | CC1(c2ccc(Cl)cc2F)Oc2cccc(C3CCN(Cc4nc5cc(-c6nnc(C(F)(F)F)[nH]6)cnc5n4CC4(C#N)CC4)CC3)c2O1 (centres unmarked) [Compound 254a, 1-{[2-({4-[2-(4-chloro-2-fluorophenyl)-2-methyl-2H-1,3-benzodioxol-4-yl]piperidin-1-yl}methyl)-6-[5-(trifluoromethyl)-4H-1,2,4-triazol-3-yl]-3H-imidazo[4,5-b]pyridin-3-yl]methyl}cyclopropane-1-carbonitrile] |
| 0.018 | Cc1nnc(-c2ccc3c(c2)nc(CN2CCC(c4cccc5c4O[C@@](C)(c4ccc(Cl)cc4F)O5)CC2)n3C[C@@H]2CCO2)[nH]1 [Compound 406a, 2-({4-[(2S)-2-(4-chloro-2-fluorophenyl)-2-methyl-2H-1,3-benzodioxol-4-yl]piperidin-1-yl}methyl)-5-(5-methyl-4H-1,2,4-triazol-3-yl)-1-{[(2S)-oxetan-2-yl]methyl}-1H-1,3-benzodiazole] |
| 0.14 | O=C(Nc1ccc2c(c1)nc(CN1CCC(c3cccc(OCc4ccc(Cl)cc4F)n3)CC1)n2C[C@@H]1CCO1)c1ccccc1 [Compound 166a, N-{2-[(4-{6-[(4-chloro-2-fluorophenyl)methoxy]pyridin-2-yl}piperidin-1-yl)methyl]-1-{[(2S)-oxetan-2-yl]methyl}-1H-1,3-benzodiazol-5-yl}benzamide] |
| 0.78 | Cn1ccc(-c2ccc3c(c2)nc(CN2CCC(c4cccc(OCc5ccc(Cl)cc5F)n4)CC2)n3C[C@@H]2CCO2)n1 [Compound 124a, 2-[(4-{6-[(4-chloro-2-fluorophenyl)methoxy]pyridin-2-yl}piperidin-1-yl)methyl]-5-(1-methyl-1H-pyrazol-3-yl)-1-{[(2S)-oxetan-2-yl]methyl}-1H-1,3-benzodiazole] |
| 6.8 | O=c1[nH]c(-c2cnc3c(c2)nc(CN2CC=C(c4cccc(OCc5ccc(Cl)cc5F)c4)CC2)n3C[C@@H]2CCO2)no1 [Compound 320a, 3-{2-[(4-{3-[(4-chloro-2-fluorophenyl)methoxy]phenyl}-1,2,3,6-tetrahydropyridin-1-yl)methyl]-3-{[(2S)-oxetan-2-yl]methyl}-3H-imidazo[4,5-b]pyridin-6-yl}-4,5-dihydro-1,2,4-oxadiazol-5-one] |
| 0.016 | Fc1cc(Cl)ccc1COc1cccc(C2=CCN(Cc3nc4cc(-c5nnc(C(F)(F)F)[nH]5)cnc4n3C[C@@H]3CCO3)CC2)n1 [Compound 323a, 6-[(4-chloro-2-fluorophenyl)methoxy]-1′-[(3-{[(2S)-oxetan-2-yl]methyl}-6-[5-(trifluoromethyl)-4H-1,2,4-triazol-3-yl]-3H-imidazo[4,5-b]pyridin-2-yl)methyl]-1′,2′,3′,6′-tetrahydro-2,4′-bipyridine] |
| 0.082 | Cc1nnc(-c2ccc3c(c2)nc(CN2CCC(c4cccc5c4O[C@@](C)(c4ccc(C(N)=O)cc4F)O5)CC2)n3C[C@@H]2CCO2)[nH]1 [Compound 410b, 3-fluoro-4-[(2S)-2-methyl-4-(1-{[5-(5-methyl-4H-1,2,4-triazol-3-yl)-1-{[(2S)-oxetan-2-yl]methyl}-1H-1,3-benzodiazol-2-yl]methyl}piperidin-4-yl)-2H-1,3-benzodioxol-2-yl]benzamide] |
| 6.3 | CC(=O)Nc1cnc2c(c1)nc(CN1CCC(c3cccc(OCc4ccc(Cl)cc4F)n3)CC1)n2C[C@@H]1CCO1 [Compound 131a, N-{2-[(4-{6-[(4-chloro-2-fluorophenyl)methoxy]pyridin-2-yl}piperidin-1-yl)methyl]-3-{[(2S)-oxetan-2-yl]methyl}-3H-imidazo[4,5-b]pyridin-6-yl}acetamide] |
| 0.025 | CC1(c2ccc(Cl)cc2F)Oc2cc(F)cc(C3CCN(Cc4nc5cc(-c6nnc(C(F)(F)F)[nH]6)ncc5n4C[C@@H]4CCO4)CC3)c2O1 (stereo partly drawn) [Compound 441a, 4-[2-(4-chloro-2-fluorophenyl)-6-fluoro-2-methyl-2H-1,3-benzodioxol-4-yl]-1-[(3-{[(2S)-oxetan-2-yl]methyl}-6-[5-(trifluoromethyl)-4H-1,2,4-triazol-3-yl]-3H-imidazo[4,5-c]pyridin-2-yl)methyl]piperidine] |
| 0.078 | N#Cc1ccc(COc2ccc(F)c(N3CCN(Cc4nc5cc(-c6nnc(C(F)(F)F)[nH]6)nnc5n4C[C@@H]4CCO4)CC3)n2)c(F)c1 [Compound 503a, 3-fluoro-4-{[(5-fluoro-6-{4-[(7-{[(2S)-oxetan-2-yl]methyl}-3-[5-(trifluoromethyl)-4H-1,2,4-triazol-3-yl]-7H-imidazo[4,5-c]pyridazin-6-yl)methyl]piperazin-1-yl}pyridin-2-yl)oxy]methyl}benzonitrile] |
| 9.1 | Cc1ncc(-c2ccc3c(c2)nc(CN2CCC(c4cccc5c4OC(C)(c4ccc(Cl)cc4F)O5)CC2)n3C[C@@H]2CCO2)cn1 (stereo partly drawn) [Compound 237a, 2-((4-(2-(4-chloro-2-fluorophenyl)-2-methylbenzo[d][1,3]dioxol-4-yl)piperidin-1-yl)methyl)-5-(2-methylpyrimidin-5-yl)-1-(((S)-oxetan-2-yl)methyl)-1H-benzo[d]imidazole] |
| 0.094 | CC1(c2ccc(Cl)cn2)Oc2cccc(C3CCN(Cc4nc5cc(-c6nnc(C7CC7)[nH]6)ncc5n4C[C@@H]4CCO4)CC3)c2O1 (stereo partly drawn) [Compound 266a, 5-chloro-2-[4-(1-{[6-(5-cyclopropyl-4H-1,2,4-triazol-3-yl)-3-{[(2S)-oxetan-2-yl]methyl}-3H-imidazo[4,5-c]pyridin-2-yl]methyl}piperidin-4-yl)-2-methyl-2H-1,3-benzodioxol-2-yl]pyridine] |
| 0.014 | C[C@]1(c2ccc(Cl)cc2F)Oc2cccc(C3CCN(Cc4nc5cc(-c6nnc(C(F)(F)F)[nH]6)ncc5n4CC4(C#N)CC4)CC3)c2O1 [Compound 345a, 1-{[2-({4-[(2S)-2-(4-chloro-2-fluorophenyl)-2-methyl-2H-1,3-benzodioxol-4-yl]piperidin-1-yl}methyl)-6-[5-(trifluoromethyl)-4H-1,2,4-triazol-3-yl]-3H-imidazo[4,5-c]pyridin-3-yl]methyl}cyclopropane-1-carbonitrile] |
